Results reported in patent US6641797B2, “Perfluoroalkyl-containing complexes with sugar radicals, process for their production and their use” (Schering Aktiengesellschaft, priority 2000, dated 2003).

Assay: Organ distribution (including tumor and lymph node concentration) after intravenous administration in prostate-cancer-carrying rats
Format: in vivo
Conditions: 225 μmol total Gd/kg i.v.
Excerpt: Organ Distribution (Including Tumor and Lymph Node Concentration) After Intravenous Administration of the Contrast Medium According to the Invention of Example 1 in Prostate-cancer-carrying Rats
After intravenous administration of 225 μmol of total gadolinium/kg of body weight of the title compound of Example 1 in rats (Cop-inbreeding Dunning R3327 MAT-Lu prostate cancer i.m.-implanted 12 days earlier), the metal content in various organs, in tumors and in lymph nodes (pooled as mesenteral and peripheral lymph nodes) was determined 10 minutes, 1 and 24 hours after administration (MW±SD, n=3).

[1] = Intestine (emptied), 10 min p.i.
[2] = Muscle (only tissue sample from right lower leg muscle), 10 min p.i.

With `CC(C(=O)NCC(=O)NCCCC[C@H](NC(=O)CO[C@H]1O[C@H](CO)[C@@H](O)[C@H](O)[C@@H]1O)C(=O)N1CCN(S(=O)(=O)C(F)(F)C(F)(F)C(F)(F)C(F)(F)C(F)(F)C(F)(F)C(F)(F)C(F)(F)F)CC1)N1CCN(CC(=O)[O-])CCN(CC(=O)[O-])CCN(CC(=O)[O-])CC1.[Gd+3]` (some centres unmarked) [Example 1] the “% Dose per Total Tissue, Balance” value (Balance, 24 h p.i.) was 94.1 ± 6.41 % Dose, the “% Dose per Total Tissue” value (Blood (58 ml of blood/kg of body weight), 10 min p.i.) was 42.95 ± 2.59 % Dose and the “% Dose per Total Tissue” value (Blood (58 ml of blood/kg of body weight), 1 h p.i.) was 21.47 ± 1.78 % Dose. For the same compound, the “% Dose per Total Tissue” value (Blood (58 ml of blood/kg of body weight), 24 h p.i.) was 1.78 ± 0.03 % Dose, the Gd-Concentration (Blood, 10 min p.i.) was 1665 ± 110 µmol/L and the Gd-Concentration (Blood, 1 h p.i.) was 825 ± 67 µmol/L. For the same compound, the Gd-Concentration (Blood, 24 h p.i.) was 214 ± 9 µmol/L, the “% Dose per Total Tissue” value (Brain, 10 min p.i.) was 0.15 ± 0.03 % Dose and the Gd-Concentration (Brain, 10 min p.i.) was 47 ± 13 µmol/L. For the same compound, the “% Dose per Total Tissue” value (Brain, 1 h p.i.) was 0.08 ± 0.02 % Dose, the Gd-Concentration (Brain, 1 h p.i.) was 26 ± 5 µmol/L and the “% Dose per Total Tissue” value (Brain, 24 h p.i.) was 0.04 ± 0.00 % Dose. The Gd-Concentration (Brain, 24 h p.i.) was 14 ± 2 µmol/L, the “% Dose per Total Tissue” value (Feces 0-24 h) was 21.85 ± 1.46 % Dose and the Gd-Concentration (Feces 0-24 h) was 3128 ± 204 µmol/L. For the same compound, the “% Dose per Total Tissue” value (Femur, 10 min p.i.) was 0.65 ± 0.01 % Dose, the Gd-Concentration (Femur, 10 min p.i.) was 184 ± 4 µmol/L and the “% Dose per Total Tissue” value (Femur, 1 h p.i.) was 0.46 ± 0.03 % Dose. The Gd-Concentration (Femur, 1 h p.i.) was 127 ± 9 µmol/L, the “% Dose per Total Tissue” value (Femur, 24 h p.i.) was 0.31 ± 0.03 % Dose and the Gd-Concentration (Femur, 24 h p.i.) was 87 ± 6 µmol/L. For the same compound, the “% Dose per Total Tissue” value (Heart, 10 min p.i.) was 0.46 ± 0.01 % Dose, the Gd-Concentration (Heart, 10 min p.i.) was 438 ± 29 µmol/L and the “% Dose per Total Tissue” value (Heart, 1 h p.i.) was 0.31 ± 0.03 % Dose. The Gd-Concentration (Heart, 1 h p.i.) was 289 ± 24 µmol/L, the “% Dose per Total Tissue” value (Heart, 24 h p.i.) was 0.14 ± 0.02 % Dose and the Gd-Concentration (Heart, 24 h p.i.) was 131 ± 9 µmol/L. The “% Dose per Total Tissue” value [1] was 2.91 ± 0.18 % Dose, the Gd-Concentration [1] was 342 ± 16 µmol/L and the “% Dose per Total Tissue” value (Intestine (emptied), 1 h p.i.) was 3.41 ± 1.02 % Dose. For the same compound, the Gd-Concentration (Intestine (emptied), 1 h p.i.) was 409 ± 67 µmol/L, the “% Dose per Total Tissue” value (Intestine (emptied), 24 h p.i.) was 2.14 ± 0.14 % Dose and the Gd-Concentration (Intestine (emptied), 24 h p.i.) was 243 ± 22 µmol/L. The “% Dose per Total Tissue” value (Kidney, 10 min p.i.) was 5.02 ± 1.29 % Dose, the Gd-Concentration (Kidney, 10 min p.i.) was 2081 ± 537 µmol/L and the “% Dose per Total Tissue” value (Kidney, 1 h p.i.) was 2.15 ± 0.23 % Dose. The Gd-Concentration (Kidney, 1 h p.i.) was 883 ± 94 µmol/L, the “% Dose per Total Tissue” value (Kidney, 24 h p.i.) was 2.97 ± 0.21 % Dose and the Gd-Concentration (Kidney, 24 h p.i.) was 1178 ± 139 µmol/L. For the same compound, the “% Dose per Total Tissue” value (Liver, 10 min p.i.) was 5.46 ± 0.16 % Dose, the Gd-Concentration (Liver, 10 min p.i.) was 387 ± 26 µmol/L and the “% Dose per Total Tissue” value (Liver, 1 h p.i.) was 5.81 ± 0.16 % Dose. For the same compound, the Gd-Concentration (Liver, 1 h p.i.) was 364 ± 8 µmol/L, the “% Dose per Total Tissue” value (Liver, 24 h p.i.) was 11.65 ± 0.97 % Dose and the Gd-Concentration (Liver, 24 h p.i.) was 746 ± 34 µmol/L. For the same compound, the “% Dose per Total Tissue” value (Lung, 10 min p.i.) was 1.69 ± 0.06 % Dose, the Gd-Concentration (Lung, 10 min p.i.) was 837 ± 32 µmol/L and the “% Dose per Total Tissue” value (Lung, 1 h p.i.) was 1.38 ± 0.08 % Dose. The Gd-Concentration (Lung, 1 h p.i.) was 658 ± 29 µmol/L, the “% Dose per Total Tissue” value (Lung, 24 h p.i.) was 0.73 ± 0.04 % Dose and the Gd-Concentration (Lung, 24 h p.i.) was 370 ± 34 µmol/L. The “% Dose per Total Tissue” value [2] was 10.11 ± 0.03 % Dose and the Gd-Concentration [2] was 99 ± 5 µmol/L.
